Laboratory results from patent US20200121627A1, “COMPOSITION COMPRISING AZELAIC ACID OR AS ACTIVE INGREDIENTS FOR MUSCLE STRENGTHENING, DEVELOPMENT, DIFFERENTIATION, REGENERATION OR INHIBITING MUSCLE ATROPHY” (priority 2018, published 2020).

Key:
[1] = test system: myostatin; experiment: Real-time PCR mRNA expression in mouse myoblasts; format: cell-based; conditions: azelaic acid treatment of dexamethasone-treated cells, vs Dexa
Experimental: (§1) Mouse myoblast cell line (C2C12 cells) was purchased from ATCC (Manassas, Va., USA) and used. The purchased cell line was incubated in an incubator at 37° C., 5% CO2 using 10% fetal bovine serum medium (Gibco-BRL) and used for experiments. When the cell line reached a confluency of about 80%, the cells were differentiated into myotubes using 2% horse serum medium (Gibco-BRL). In order to identify muscle-potentiating efficacy, treatment with 100 μM azelaic acid (CAS Number 123-99-9, Sigma) was performed for two days from the day when differentiation began, and a control was treated with 100 μM dimethyl sulfoxide (DMSO; Sigma). In order to identify muscle loss-inhibitory efficacy, combined treatment with 50 μM dexamethasone (dexa; Sigma) and 100 μM azelaic acid (CAS Number 123-99-9, Sigma) was performed for two days from the 4th day of differentiation.
(§2) 334 μl of Trizol solution was added per 1×10^7 cells of mouse myoblasts, and grinding was performed. Then, the resultant was centrifuged at 4° C. and 12,000×g for 10 minutes. The supernatant was transferred to a new tube. Then, 67 μl of chloroform was added thereto and vortexing was performed. Again, the supernatant was transferred to a new tube, and isopropanol was added so that a ratio of the supernatant to isopropanol was 1:1. After performing vigorous shaking 10 times, the tube was allowed to stand at room temperature for 15 minutes, and centrifuged at 12,000×g and 4° C. for 10 minutes.

[2] = test system: IGF1; experiment: Real-time PCR mRNA expression in mouse myoblasts; format: cell-based; conditions: azelaic acid treatment of dexamethasone-treated cells, vs Dexa
Experimental: as §1, §2

[3] = test system: MAFbx/Atrogin1; experiment: Real-time PCR mRNA expression in mouse myoblasts; format: cell-based; conditions: azelaic acid treatment of dexamethasone-treated cells, vs Dexa
Experimental: as §1, §2

[4] = test system: MuRF1; experiment: Real-time PCR mRNA expression in mouse myoblasts; format: cell-based; conditions: azelaic acid treatment of dexamethasone-treated cells, vs Dexa
Experimental: as §1, §2

[5] = test system: rats; conditions: oral administration; cited from earlier work
[6] = test system: Mouse myoblast cell line (C2C12 cells); experiment: Myotube length in differentiating mouse myoblasts (muscle-potentiating efficacy), Wright-Giemsa staining; format: cell-based; conditions: 100 μM azelaic acid for two days from the day differentiation began, vs DMSO control
Experimental: (§3) Mouse myoblast cell line (C2C12 cells) was purchased from ATCC (Manassas, Va., USA) and used. The purchased cell line was incubated in an incubator at 37° C., 5% CO2 using 10% fetal bovine serum medium (Gibco-BRL) and used for experiments. […] In order to identify muscle-potentiating efficacy, treatment with 100 μM azelaic acid (CAS Number 123-99-9, Sigma) was performed for two days from the day when differentiation began, and a control was treated with 100 μM dimethyl sulfoxide (DMSO; Sigma). […] Sigma) and 100 μM azelaic acid (CAS Number 123-99-9, Sigma) was performed for two days from the 4th day of differentiation. The cells were washed twice with phosphate buffered saline (PBS), and then fixed for 10 minutes with 100% methanol. […] Co., Ltd., Seoul, South Korea) that specifically stains myotubes. Stained myotubes were photographed at ×40 magnification using a fluorescence microscope (IX 71, Olympus) and analyzed using Image J software (USA). Six sections of each well were randomly selected and micrographed. Lengths of at least 100 myotubes from each well were analyzed (3 repetitions/group).

[7] = ethanol and water; cited from earlier work
[8] = test system: p-p70S6K1; experiment: Western blotting in mouse myoblasts; format: cell-based; conditions: azelaic acid treatment of dexamethasone-treated cells, vs Dexa
Experimental: as §1, with “In order to identify muscle loss-inhibitory efficacy, combined treatment with 50 μM dexamethasone (dexa; Sigma) and 100 μM azelaic acid (CAS Number 123-99-9, Sigma) was performed for two days from the 4th day of differentiation.” left out
(§4) In order to perform Western blotting in cells, to each well from which the medium was removed was added a lysis buffer that contains 500 μL of 100 mM Tris-HCl, pH 7.4, 5 mM EDTA, 50 mM sodium pyrophosphate, 50 mM NaF, 100 mM orthovanadate, 1% Triton X-100, 1 mM phenylmethanesulfonyl fluoride, 2 μg/mL aprotinin, 1 μg/mL pepstatin A, and 1 μg/mL leupeptin, and the cells were lysed to obtain a lysate. […] Then, the middle layer was taken and proteins were quantified according to the Bradford method (Bio-Rad). 40 μg of the quantified proteins were electrophoresed on SDS polyacrylamide gel and then transferred to nitrocellulose membranes (Amersham, Buckinghamshire, UK).

[9] = test system: p-4E-BP1; experiment: Western blotting in mouse myoblasts; format: cell-based; conditions: azelaic acid treatment of dexamethasone-treated cells, vs Dexa
Experimental: as §1, with “In order to identify muscle loss-inhibitory efficacy, combined treatment with 50 μM dexamethasone (dexa; Sigma) and 100 μM azelaic acid (CAS Number 123-99-9, Sigma) was performed for two days from the 4th day of differentiation.” left out
as §4

[10] = test system: nicotinamide adenine dinucleotide phosphate (NADP) oxidase; conditions: cited from earlier work
[11] = test system: Mouse myoblast cell line (C2C12 cells); experiment: Myotube length in dexamethasone-treated mouse myoblasts (muscle loss-inhibitory efficacy), Wright-Giemsa staining; format: cell-based; conditions: 100 μM azelaic acid combined with 50 μM dexamethasone for two days from the 4th day of differentiation
Experimental: as §3

[12] = test system: various strains of skin microorganisms; conditions: 0.5 mol/l (8.4% w/v) azelaic acid solution, 24 hours, all bacterial strains; cited from earlier work
[13] = test system: interleukin-1β, interleukin-6, and TNF-α; conditions: human epidermal cells treated with 20 mM azelaic acid; cited from earlier work

O=C(O)CCCCCCCC(=O)O [azelaic acid, nonanedioic acid]
expression of myostatin gene [1]: significantly decreased | expression of IGF1 gene [2]: significantly increased | expression of MAFbx/Atrogin1 gene [3]: significantly decreased | expression of MuRF1 gene [4]: significantly decreased | LD50 [5]: 15,800 mg/kg | increase in myotube length [6]: 62% | solubility [7]: soluble | amount of p-p70S6K1 protein [8]: significantly increased | amount of p-4E-BP1 protein [9]: significantly increased | reaction of NADP oxidase (antioxidant effect) [10]: inhibiting | increase in the myotube length which has decreased due to dexamethasone [11]: 62% | decreased viability of bacterial strains [12]: at least 40 fold | mRNA expression and protein secretion of interleukin-1β, interleukin-6, and TNF-α by UVB [13]: inhibition
